ChEMBL document CHEMBL3352377, “Discovery of selective and orally bioavailable protein kinase Cθ (PKCθ) inhibitors from a fragment hit” (J Med Chem, 2015)

How the values were obtained:
[1] = biological target: Protein kinase C alpha type (Homo sapiens, UniProt P17252)
[2] = biological target: T1, Protein kinase C theta type (Homo sapiens, UniProt Q04759)
Description: Inhibition of human recombinant PKCtheta expressed in Sf21 cells using Bio-cdc peptide substrate and ATP after 60 mins by time-resolved fluorescence in-vitro kinase assay

[3] = biological target: Focal adhesion kinase 1 (Homo sapiens, UniProt Q05397); test: Inhibition of FAK (unknown origin) by TR-FRET assay
[4] = biological target: T1, Protein kinase C theta type; test: Inhibition of human recombinant PKCtheta by TR-FRET assay
[5] = test system: Rattus norvegicus; test: Increase in left ventricular dP/dt50 in rat cardiovascular model at plasma concentration of 1.3 uM dosed over 30 mins infusions; conditions: in vivo, iv, 0.5 h
[6] = test system: Rattus norvegicus; test: Increase in left ventricular dP/dt50 in rat cardiovascular model at plasma concentration of 9.7 uM dosed over 30 mins infusions; conditions: in vivo, iv, 0.5 h
[7] = test system: Rattus norvegicus; test: Increase in left ventricular dP/dt50 in rat cardiovascular model at plasma concentration of 5.8 uM dosed over 30 mins infusions; conditions: in vivo, iv, 0.5 h
[8] = biological target: Protein kinase C beta type (Homo sapiens, UniProt P05771); test: Inhibition of human recombinant PKCbeta expressed in Sf21 cells using Bio-cdc peptide substrate and ATP after 60 mins by time-resolved fluorescence in-vitro kinase assay
Protein kinase C beta type, sequence (P05771 whole entry): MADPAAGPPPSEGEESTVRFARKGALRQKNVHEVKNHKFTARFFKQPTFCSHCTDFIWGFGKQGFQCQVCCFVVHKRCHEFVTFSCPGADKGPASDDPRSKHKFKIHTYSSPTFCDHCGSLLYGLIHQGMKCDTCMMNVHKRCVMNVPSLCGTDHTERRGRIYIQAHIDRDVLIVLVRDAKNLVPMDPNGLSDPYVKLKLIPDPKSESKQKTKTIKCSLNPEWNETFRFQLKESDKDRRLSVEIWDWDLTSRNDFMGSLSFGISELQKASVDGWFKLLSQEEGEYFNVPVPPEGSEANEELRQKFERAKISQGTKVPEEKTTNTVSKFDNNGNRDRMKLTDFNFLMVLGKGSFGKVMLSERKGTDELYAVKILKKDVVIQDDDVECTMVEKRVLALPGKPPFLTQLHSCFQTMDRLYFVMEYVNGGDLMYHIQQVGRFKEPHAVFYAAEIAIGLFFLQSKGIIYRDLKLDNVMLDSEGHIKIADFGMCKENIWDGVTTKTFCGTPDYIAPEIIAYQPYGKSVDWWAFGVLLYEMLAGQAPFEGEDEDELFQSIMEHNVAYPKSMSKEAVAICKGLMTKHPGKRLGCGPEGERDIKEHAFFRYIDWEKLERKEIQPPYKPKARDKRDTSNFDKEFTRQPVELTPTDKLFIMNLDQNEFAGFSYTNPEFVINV

[9] = Plasma clearance in rat at 1 mg/kg, iv or 3 mg/kg, po; format: ADME, organism-based
[10] = Permeability from apical to basolateral side in MDCK2-MDR1 cells at pH 7.4; format: ADME, cell-based, Canis lupus familiaris, MDCK-II; conditions: dog, MDCK-MDR1, pH 7.4; read-out: permeability
[11] = biological target: Protein kinase C delta type (Homo sapiens, UniProt Q05655); test: Inhibition of human recombinant PKCdelta expressed in Sf21 cells using Bio-cdc peptide substrate and ATP after 60 mins by time-resolved fluorescence in-vitro kinase assay
Protein kinase C delta type, sequence (Q05655 whole entry): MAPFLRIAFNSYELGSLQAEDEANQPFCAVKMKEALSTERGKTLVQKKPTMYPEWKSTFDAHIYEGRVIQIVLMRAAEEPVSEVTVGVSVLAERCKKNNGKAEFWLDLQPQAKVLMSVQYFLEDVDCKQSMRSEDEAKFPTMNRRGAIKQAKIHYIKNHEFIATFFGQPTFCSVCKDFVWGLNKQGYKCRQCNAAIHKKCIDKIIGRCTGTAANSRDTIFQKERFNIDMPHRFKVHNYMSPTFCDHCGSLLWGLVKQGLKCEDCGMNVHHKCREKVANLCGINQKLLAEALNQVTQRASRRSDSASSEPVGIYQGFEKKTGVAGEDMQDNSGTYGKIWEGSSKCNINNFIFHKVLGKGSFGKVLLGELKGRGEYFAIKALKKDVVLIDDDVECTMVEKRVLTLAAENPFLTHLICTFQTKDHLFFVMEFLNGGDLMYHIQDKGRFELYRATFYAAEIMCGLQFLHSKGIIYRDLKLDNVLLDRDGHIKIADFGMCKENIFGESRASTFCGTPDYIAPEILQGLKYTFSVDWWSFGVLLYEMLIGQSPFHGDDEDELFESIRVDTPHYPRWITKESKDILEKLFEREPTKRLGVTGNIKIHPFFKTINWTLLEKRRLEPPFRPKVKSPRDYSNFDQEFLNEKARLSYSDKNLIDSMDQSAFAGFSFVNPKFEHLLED

[12] = Oral bioavailability in rat at 3 mg/kg; format: ADME, organism-based; conditions: in vivo
[13] = Unbound intrinsic clearance in rat microsomes; format: ADME, Microsome
[14] = Inhibition of human recombinant […] expressed in Sf21 cells using Bio-cdc peptide substrate and ATP after 60 mins by time-resolved fluorescence in-vitro kinase assay
[15] = Half life in rat at 1 mg/kg, iv or 3 mg/kg, po; format: ADME, organism-based; conditions: in vivo
[16] = Unbound intrinsic clearance in human microsomes; format: ADME, Microsome
[17] = biological target: T2, Protein kinase C epsilon type (Homo sapiens, UniProt Q02156); test: Inhibition of human recombinant PKCepsilon expressed in Sf21 cells using Bio-cdc peptide substrate and ATP after 60 mins by time-resolved fluorescence in-vitro kinase assay
T2 sequence (Q02156 whole entry): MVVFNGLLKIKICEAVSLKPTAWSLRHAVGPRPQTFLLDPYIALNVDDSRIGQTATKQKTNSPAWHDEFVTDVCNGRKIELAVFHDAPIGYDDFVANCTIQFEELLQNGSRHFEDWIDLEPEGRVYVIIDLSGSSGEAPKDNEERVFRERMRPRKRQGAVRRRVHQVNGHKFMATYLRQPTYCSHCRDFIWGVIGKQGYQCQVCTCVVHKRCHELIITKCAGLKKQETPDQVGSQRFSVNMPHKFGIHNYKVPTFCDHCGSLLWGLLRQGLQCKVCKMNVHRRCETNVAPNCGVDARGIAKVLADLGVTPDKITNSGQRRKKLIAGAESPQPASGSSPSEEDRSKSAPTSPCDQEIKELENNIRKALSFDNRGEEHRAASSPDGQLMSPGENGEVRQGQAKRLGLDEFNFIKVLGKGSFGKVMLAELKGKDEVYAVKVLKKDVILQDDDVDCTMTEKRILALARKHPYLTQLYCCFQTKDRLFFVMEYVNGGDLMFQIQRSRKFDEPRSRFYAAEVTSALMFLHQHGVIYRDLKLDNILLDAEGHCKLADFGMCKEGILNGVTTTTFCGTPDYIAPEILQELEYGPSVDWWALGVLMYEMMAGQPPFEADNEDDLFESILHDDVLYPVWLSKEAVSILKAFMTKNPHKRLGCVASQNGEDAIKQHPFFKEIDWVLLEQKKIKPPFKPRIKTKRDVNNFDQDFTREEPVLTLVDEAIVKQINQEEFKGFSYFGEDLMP

[18] = biological target: T3, Protein kinase C zeta type (Homo sapiens, UniProt Q05513); test: Inhibition of human recombinant PKCzeta expressed in Sf21 cells using Bio-cdc peptide substrate and ATP after 60 mins by time-resolved fluorescence in-vitro kinase assay
T3 sequence (Q05513 whole entry): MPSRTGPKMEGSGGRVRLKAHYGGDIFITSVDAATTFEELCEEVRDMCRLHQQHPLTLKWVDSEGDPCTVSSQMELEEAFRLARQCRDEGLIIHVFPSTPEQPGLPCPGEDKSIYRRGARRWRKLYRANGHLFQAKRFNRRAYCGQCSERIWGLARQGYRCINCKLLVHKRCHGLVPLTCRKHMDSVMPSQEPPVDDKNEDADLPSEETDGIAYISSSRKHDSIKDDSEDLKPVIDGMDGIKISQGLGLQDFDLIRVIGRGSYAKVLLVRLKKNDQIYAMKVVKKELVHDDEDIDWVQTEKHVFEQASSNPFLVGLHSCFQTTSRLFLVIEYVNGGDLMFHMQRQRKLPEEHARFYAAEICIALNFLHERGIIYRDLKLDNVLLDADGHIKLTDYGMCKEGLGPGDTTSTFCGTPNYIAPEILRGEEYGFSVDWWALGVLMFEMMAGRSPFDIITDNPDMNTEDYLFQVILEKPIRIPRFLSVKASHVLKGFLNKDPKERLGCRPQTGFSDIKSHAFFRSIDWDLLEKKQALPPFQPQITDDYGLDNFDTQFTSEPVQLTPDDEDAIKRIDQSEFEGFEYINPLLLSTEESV

[19] = AUC in rat at 1 mg/kg, iv or 3 mg/kg, po; format: ADME, organism-based; conditions: plasma
[20] = Unbound intrinsic clearance in mouse microsomes; format: ADME, Microsome
[21] = cells; conditions: Homo sapiens, T-Blast, 24 h
Description: Inhibition of anti-CD3/anti-CD28 antibody-induced IL2 production in human T-Blast cells after 24 hrs

[22] = biological target: Protein kinase C gamma type (Homo sapiens, UniProt P05129); test: Inhibition of human recombinant PKCgamma expressed in Sf21 cells using Bio-cdc peptide substrate and ATP after 60 mins by time-resolved fluorescence in-vitro kinase assay
[23] = Cmax in rat at 1 mg/kg, iv or 3 mg/kg, po; format: ADME, organism-based; conditions: in vivo

T1 sequence (Q04759 whole entry): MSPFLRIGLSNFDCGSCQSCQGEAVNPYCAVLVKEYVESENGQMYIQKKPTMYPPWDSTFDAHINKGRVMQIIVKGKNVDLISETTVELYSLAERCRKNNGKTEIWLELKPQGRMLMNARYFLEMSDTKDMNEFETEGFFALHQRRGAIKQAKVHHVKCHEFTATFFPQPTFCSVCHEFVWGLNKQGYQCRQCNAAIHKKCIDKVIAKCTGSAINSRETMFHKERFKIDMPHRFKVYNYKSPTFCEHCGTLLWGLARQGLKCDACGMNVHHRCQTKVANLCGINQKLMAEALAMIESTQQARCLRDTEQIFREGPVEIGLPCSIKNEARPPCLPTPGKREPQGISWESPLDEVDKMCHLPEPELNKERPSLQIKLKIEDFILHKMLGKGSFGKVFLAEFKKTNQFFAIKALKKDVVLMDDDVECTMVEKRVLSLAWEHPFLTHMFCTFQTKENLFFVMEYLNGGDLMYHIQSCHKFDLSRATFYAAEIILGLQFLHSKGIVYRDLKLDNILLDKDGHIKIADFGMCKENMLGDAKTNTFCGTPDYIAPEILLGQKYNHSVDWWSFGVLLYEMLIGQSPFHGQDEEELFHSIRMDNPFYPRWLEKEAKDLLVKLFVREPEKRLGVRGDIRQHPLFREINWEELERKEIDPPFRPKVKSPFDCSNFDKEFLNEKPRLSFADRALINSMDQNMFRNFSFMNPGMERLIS
Focal adhesion kinase 1, sequence (Q05397 whole entry): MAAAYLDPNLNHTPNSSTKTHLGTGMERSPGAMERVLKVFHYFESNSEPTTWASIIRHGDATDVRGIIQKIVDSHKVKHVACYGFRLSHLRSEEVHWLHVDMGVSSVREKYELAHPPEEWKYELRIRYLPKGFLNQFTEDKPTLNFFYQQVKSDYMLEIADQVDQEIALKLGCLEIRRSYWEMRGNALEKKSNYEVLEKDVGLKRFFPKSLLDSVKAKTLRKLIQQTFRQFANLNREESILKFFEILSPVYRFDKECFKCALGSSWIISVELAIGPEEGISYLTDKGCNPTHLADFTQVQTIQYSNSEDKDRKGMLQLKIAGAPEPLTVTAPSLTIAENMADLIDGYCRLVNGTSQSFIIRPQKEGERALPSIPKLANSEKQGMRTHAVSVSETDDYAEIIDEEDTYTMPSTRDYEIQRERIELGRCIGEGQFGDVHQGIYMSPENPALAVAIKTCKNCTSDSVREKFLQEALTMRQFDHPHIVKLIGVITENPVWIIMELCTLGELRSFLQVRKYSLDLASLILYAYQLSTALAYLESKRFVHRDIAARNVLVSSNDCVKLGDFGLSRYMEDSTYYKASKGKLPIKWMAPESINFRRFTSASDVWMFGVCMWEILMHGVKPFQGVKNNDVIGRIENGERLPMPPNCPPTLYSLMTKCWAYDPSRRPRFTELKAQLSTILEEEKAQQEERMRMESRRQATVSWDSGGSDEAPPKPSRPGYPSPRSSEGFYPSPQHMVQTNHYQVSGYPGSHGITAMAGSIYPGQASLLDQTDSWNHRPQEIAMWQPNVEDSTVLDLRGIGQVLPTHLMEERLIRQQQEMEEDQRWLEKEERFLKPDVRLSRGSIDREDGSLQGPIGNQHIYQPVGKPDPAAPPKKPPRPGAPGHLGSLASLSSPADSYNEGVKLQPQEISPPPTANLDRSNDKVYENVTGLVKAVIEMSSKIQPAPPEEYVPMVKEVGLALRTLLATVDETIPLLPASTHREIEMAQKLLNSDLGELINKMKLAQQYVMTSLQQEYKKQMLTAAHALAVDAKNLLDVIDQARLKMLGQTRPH

O=C1CN2C(=NN1)COc1ccccc12
IC50 [1]: > 50 µM
IC50 [2]: 453 µM
IC50 [3]: 156 µM
IC50 [4]: 19 µM

CN1CCN(c2nc(C3=C(c4c[nH]c5ccccc45)C(=O)NC3=O)c3ccccc3n2)CC1 [SOTRASTAURIN]
Activity [5]: 14%
Activity [6]: 76%
Activity [7]: 35%

C[C@@H]1C(=O)NN=C2COc3cc(-c4ccccc4)c(NC4CNC4)cc3N21
IC50 [8]: 0.087 µM
clearance [9]: 81.7 mL/min/kg
Papp A→B [10]: 0.27 ×10⁻⁶ cm/s
IC50 [11]: 0.33 µM
bioavailability [12]: 5.4%
CL free [13]: 200 mL/min/kg
IC50 [1]: 1.8 µM
IC50 [14]: 0.86 µM
half-life [15]: 5.9 h
CL free [16]: 90 mL/min/kg
IC50 [2]: 0.049 µM
IC50 [17]: 0.46 µM
IC50 [18]: 8.5 µM
AUC [19]: 43 ng·h/mL
CL free [20]: 467 mL/min/kg
IC50 [21]: 0.12 µM
IC50 [22]: 13 µM
Cmax [23]: 5.3 ng/mL
